Data from patent publication US9540343B2 (Gilead Sciences, Inc., priority 2011, dated 2017).

What was measured:
in vitro = settings: human, uninfected MT-4 cells, CC50 (nM), same protocol as Test A, CellTiter-Glo
How it was run: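 Cytoprotection read-out: CellTiter-Glo chemiluminescence after 5 days at 37 °C of HIV-IIIb-infected MT-4 cells (m.o.i. 0.003) with compound in 10-point 3-fold dilutions, quadruplicate, 10% FBS. Cytotoxicity (CC50) measured identically without virus.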

HIV-IIIb = assay: Test A: Antiviral assay in MT4 cells; format: cell-based, HIV-1; settings: Human immunodeficiency virus 1, IIIB, MT4, 120 h, read-out: % inhibition at 2 μM, percent inhibition of virus-induced cell killing, from dose response curve at 2 uM drug; MT-4 cells infected with HIV-IIIb, 5 days, CellTiter-Glo

Row | SMILES | CC50 at 5 days (in vitro) [nM] | inhibition at 2 µM (HIV-IIIb) [%]
1 | NC(=O)c1cc(-c2cccnc2[C@H](Cc2cc(F)cc(F)c2)NC(=O)Cn2cc(C=O)c(C(F)(F)F)n2)ccc1F [Example 296, (S)-5-(2-(2-(3,5-difluorophenyl)-1-(2-(4-formyl-3-(trifluoromethyl)-1H-pyrazol-1-yl)acetamido)ethyl)pyridin-3-yl)-2-fluorobenzamide] | 10800 | 96
2 | C=Cc1cn(CC(=O)N[C@@H](Cc2cc(F)cc(F)c2)c2ncccc2-c2ccc(F)c(C(N)=O)c2)nc1C(F)(F)F [Example 297, (S)-5-(2-(2-(3,5-difluorophenyl)-1-(2-(3-(trifluoromethyl)-4-vinyl-1H-pyrazol-1-yl)acetamido)ethyl)pyridin-3-yl)-2-fluorobenzamide] | 23300 | 14
3 | NC(=O)c1cccc(-c2cccnc2[C@H](Cc2cc(F)cc(F)c2)NC(=O)Cn2ccc3ccc(=O)[nH]c32)c1 [Example 298C, (S)-3-(2-(2-(3,5-difluorophenyl)-1-(2-(6-oxo-6,7-dihydro-1H-pyrrolo[2,3-b]pyridin-1-yl)acetamido)ethyl)pyridin-3-yl)benzamide] | > 53000 | 61
4 | O=C(Cn1nc(C(F)F)c2c1C1CC1CC2)NC(Cc1cc(F)cc(F)c1)c1ncncc1-c1cnc2[nH]ccc2c1 (stereo not drawn) [Example 299D, N-(1-(5-(1H-pyrrolo[2,3-b]pyridin-5-yl)pyrimidin-4-yl)-2-(3,5-difluorophenyl)ethyl)-2-(3-(difluoromethyl)-5,5a,6,6a-tetrahydrocyclopropa[g]indazol-1(4H)-yl)acetamide] | 19500 | 100
5 | CN(C)Cc1cn(CC(=O)N[C@@H](Cc2cc(F)cc(F)c2)c2ncccc2-c2ccc(F)c(C(N)=O)c2)nc1C(F)(F)F [Example 300, (S)-5-(2-(2-(3,5-difluorophenyl)-1-(2-(4-((dimethylamino)methyl)-3-(trifluoromethyl)-1H-pyrazol-1-yl)acetamido)ethyl)pyridin-3-yl)-2-fluorobenzamide] | > 53200 | 0
6 | O=C(Cn1nc(C(F)(F)F)c2c1CCCC2)N[C@@H](Cc1cc(F)cc(F)c1)c1nc[nH]c(=O)c1-c1ccc(Cl)cc1 [Example 301B, (S)—N-(1-(5-(4-chlorophenyl)-6-oxo-1,6-dihydropyrimidin-4-yl)-2-(3,5-difluorophenyl)ethyl)-2-(3-(trifluoromethyl)-4,5,6,7-tetrahydro-1H-indazol-1-yl)acetamide] | 5650 | 0
7 | O=C(Cc1c[nH]c2ccc(F)cc12)N[C@@H](Cc1cc(F)cc(F)c1)c1ncccc1-c1ccnc(-c2nn[nH]n2)c1 [Example 302, (S)—N-(1-(2′-(2H-tetrazol-5-yl)-3,4′-bipyridin-2-yl)-2-(3,5-difluorophenyl)ethyl)-2-(5-fluoro-1H-indol-3-yl)acetamide] | 16800 | 0
8 | NC(=O)c1cc(-c2cccnc2[C@H](Cc2cc(F)cc(F)c2)NC(=O)Cn2nc(C(F)(F)F)c3c2CCNC3)ccc1F [Example 303, (S)-5-(2-(2-(3,5-difluorophenyl)-1-(2-(3-(trifluoromethyl)-4,5,6,7-tetrahydro-1H-pyrazolo[4,3-c]pyridin-1-yl)acetamido)ethyl)pyridin-3-yl)-2-fluorobenzamide] | 35500 | 14
9 | NC(=O)c1cc(-c2cccnc2[C@H](Cc2cc(F)cc(F)c2)NC(=O)Cn2nc(C(F)F)c3c2C2CC2CC3(F)F)ccc1F (stereo partly drawn) [Example 304C, 5-(2-((1S)-1-(2-(3-(difluoromethyl)-4,4-difluoro-5,5a,6,6a-tetrahydrocyclopropa[g]indazol-1(4H)-yl)acetamido)-2-(3,5-difluorophenyl)ethyl)pyridin-3-yl)-2-fluorobenzamide] | 1700 | 94
10 | NC(=O)c1cc(-c2cccnc2[C@H](Cc2cc(F)cc(F)c2)NC(=O)Cn2cc(CN3CCOCC3)c(C(F)(F)F)n2)ccc1F [Example 305, (S)-5-(2-(2-(3,5-difluorophenyl)-1-(2-(4-(morpholinomethyl)-3-(trifluoromethyl)-1H-pyrazol-1-yl)acetamido)ethyl)pyridin-3-yl)-2-fluorobenzamide] | > 53200 | 0
11 | Cc1nn(CC(=O)N[C@@H](Cc2cc(F)cc(F)c2)c2ncccc2-c2cccc(C(N)=O)c2)c2cc(O)ccc12 [Example 306C, (S)-3-(2-(2-(3,5-difluorophenyl)-1-(2-(6-hydroxy-3-methyl-1H-indazol-1-yl)acetamido)ethyl)pyridin-3-yl)benzamide] | 41600 | 10
12 | NC(=O)c1cc(-c2cccnc2[C@H](Cc2cc(F)cc(F)c2)NC(=O)Cn2nc(C(F)F)c3c2CCCC3)ccc1F [Example 307, (S)-5-(2-(1-(2-(3-(difluoromethyl)-4,5,6,7-tetrahydro-1H-indazol-1-yl)acetamido)-2-(3,5-difluorophenyl)ethyl)pyridin-3-yl)-2-fluorobenzamide] | 26700 | 99
13 | NC(=O)c1cc(-c2cncnc2[C@H](Cc2cc(F)cc(F)c2)NC(=O)Cn2nc(C(F)F)c3c2C(F)(F)CCC3(F)F)ccc1F [Example 308, (S)-5-(4-(1-(2-(3-(difluoromethyl)-4,4,7,7-tetrafluoro-4,5,6,7-tetrahydro-1H-indazol-1-yl)acetamido)-2-(3,5-difluorophenyl)ethyl)pyrimidin-5-yl)-2-fluorobenzamide] | 39800 | 102
14 | NC(=O)c1cc(-c2cccnc2[C@H](Cc2cc(F)cc(F)c2)NC(=O)Cn2c(=O)[nH]c3cc(Cl)c(Cl)cc32)ccc1F [Example 309, (S)-5-(2-(1-(2-(5,6-dichloro-2-oxo-2,3-dihydro-1H-benzo[d]imidazol-1-yl)acetamido)-2-(3,5-difluorophenyl)ethyl)pyridin-3-yl)-2-fluorobenzamide] | 12000 | 9
15 | NC(=O)c1cc(-c2cccnc2[C@H](Cc2cc(F)cc(F)c2)NC(=O)Cc2c[nH]c3ccc(O)cc23)ccn1 [Example 310C, (S)-2-(2-(3,5-difluorophenyl)-1-(2-(5-hydroxy-1H-indol-3-yl)acetamido)ethyl)-3,4′-bipyridine-2′-carboxamide] | > 53000 | 97
16 | NC(=O)c1cc(-c2cccnc2[C@H](Cc2cc(F)cc(F)c2)NC(=O)Cn2cc(C(N)=O)c(C(F)(F)F)n2)ccc1F [Example 312, (S)-1-(2-(1-(3-(3-carbamoyl-4-fluorophenyl)pyridin-2-yl)-2-(3,5-difluorophenyl)ethylamino)-2-oxoethyl)-3-(trifluoromethyl)-1H-pyrazole-4-carboxamide] | > 53200 | 2
17 | NC(=O)c1cccc(-c2cncnc2[C@@H](Cc2cc(F)cc(F)c2)NC(=O)Cc2c[nH]c3ccc(O)cc23)c1 [Example 313, (R)-3-(4-(2-(3,5-difluorophenyl)-1-(2-(5-hydroxy-1H-indol-3-yl)acetamido)ethyl)pyrimidin-5-yl)benzamide] | > 53200 | 14
18 | CCNCc1cn(CC(=O)N[C@@H](Cc2cc(F)cc(F)c2)c2ncccc2-c2ccc(F)c(C(N)=O)c2)nc1C(F)(F)F [Example 314, (S)-5-(2-(2-(3,5-difluorophenyl)-1-(2-(4-((ethylamino)methyl)-3-(trifluoromethyl)-1H-pyrazol-1-yl)acetamido)ethyl)pyridin-3-yl)-2-fluorobenzamide] | 23600 | 3
19 | NC(=O)c1cccc(-c2cccnc2[C@H](Cc2cc(F)cc(F)c2)NC(=O)Cn2c(C(F)(F)F)nc3ccc(OC(F)(F)F)cc32)c1 [Example 315, (S)-3-(2-(2-(3,5-difluorophenyl)-1-(2-(6-(trifluoromethoxy)-2-(trifluoromethyl)-1H-benzo[d]imidazol-1-yl)acetamido)ethyl)pyridin-3-yl)benzamide] | 47200 | 0
20 | NC(=O)c1cc(-c2cccnc2[C@H](Cc2cc(F)cc(F)c2)NC(=O)Cn2nc(C(F)F)cc2C2CC2)ccc1F [Example 317, (S)-5-(2-(1-(2-(5-cyclopropyl-3-(difluoromethyl)-1H-pyrazol-1-yl)acetamido)-2-(3,5-difluorophenyl)ethyl)pyridin-3-yl)-2-fluorobenzamide] | > 47600 | 41
21 | NC(=O)c1cc(-c2cccnc2[C@H](Cc2cc(F)cc(F)c2)NC(=O)Cn2c(=O)[nH]c3ccccc32)ccc1F [Example 318, (S)-5-(2-(2-(3,5-difluorophenyl)-1-(2-(2-oxo-2,3-dihydro-1H-benzo[d]imidazol-1-yl)acetamido)ethyl)pyridin-3-yl)-2-fluorobenzamide] | > 53200 | 27
22 | Cc1cc2nc(C(F)(F)F)n(CC(=O)N[C@@H](Cc3cc(F)cc(F)c3)c3ncccc3-c3ccc(F)c(C(N)=O)c3)c2cc1C [Example 319, (S)-5-(2-(2-(3,5-difluorophenyl)-1-(2-(5,6-dimethyl-2-(trifluoromethyl)-1H-benzo[d]imidazol-1-yl)acetamido)ethyl)pyridin-3-yl)-2-fluorobenzamide] | > 52500 | 70
23 | Cc1cc2ncn(CC(=O)N[C@@H](Cc3cc(F)cc(F)c3)c3ncncc3-c3ccc(Cl)cc3)c2cc1C [Example 320, (S)—N-(1-(5-(4-chlorophenyl)pyrimidin-4-yl)-2-(3,5-difluorophenyl)ethyl)-2-(5,6-dimethyl-1H-benzo[d]imidazol-1-yl)acetamide] | 12500 | 110
24 | Cc1cc(=O)n(CC(=O)N[C@@H](Cc2cc(F)cc(F)c2)c2ncccc2-c2cccc(C(N)=O)c2)c2ccccc12 [Example 321, (S)-3-(2-(2-(3,5-difluorophenyl)-1-(2-(4-methyl-2-oxoquinolin-1(2H)-yl)acetamido)ethyl)pyridin-3-yl)benzamide] | 29700 | 30
